Measurements: patent US11649227B2, “Allosteric chromenone inhibitors of phosphoinositide 3-kinase (PI3K) for the treatment of disease” (Petra Pharma Corporation, priority 2020, dated 2023)

Each compound was assayed against human full length PIK3CA Wild-type (p110α/p85α complex) (Homo sapiens (Human), UniProt P42336) (assay: PI3K-Alpha kinase (PIK3CA) activity, wild-type, Transcreener ADP2 FI assay). Details: PI3K-α (PIK3CA) wild-type, biochemical.
Procedure, shortened: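 Recombinant full-length p110α/p85α (1-5 nM, wild-type or H1047R) preincubated with compound 1 h at 27° C, then reacted with 25 uM ATP and 50 uM PIP2diC8 or membrane PIP2:PS in pH 7.4 HEPES, 25 mM MgCl2, 5% DMSO (also pH 6.0/6.4 MOPS). Run to ~2.5 uM ADP; Transcreener ADP2 fluorescence converted via ADP calibration for IC50.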

Sequence of human full length PIK3CA Wild-type (p110α/p85α complex) (P42336 whole entry): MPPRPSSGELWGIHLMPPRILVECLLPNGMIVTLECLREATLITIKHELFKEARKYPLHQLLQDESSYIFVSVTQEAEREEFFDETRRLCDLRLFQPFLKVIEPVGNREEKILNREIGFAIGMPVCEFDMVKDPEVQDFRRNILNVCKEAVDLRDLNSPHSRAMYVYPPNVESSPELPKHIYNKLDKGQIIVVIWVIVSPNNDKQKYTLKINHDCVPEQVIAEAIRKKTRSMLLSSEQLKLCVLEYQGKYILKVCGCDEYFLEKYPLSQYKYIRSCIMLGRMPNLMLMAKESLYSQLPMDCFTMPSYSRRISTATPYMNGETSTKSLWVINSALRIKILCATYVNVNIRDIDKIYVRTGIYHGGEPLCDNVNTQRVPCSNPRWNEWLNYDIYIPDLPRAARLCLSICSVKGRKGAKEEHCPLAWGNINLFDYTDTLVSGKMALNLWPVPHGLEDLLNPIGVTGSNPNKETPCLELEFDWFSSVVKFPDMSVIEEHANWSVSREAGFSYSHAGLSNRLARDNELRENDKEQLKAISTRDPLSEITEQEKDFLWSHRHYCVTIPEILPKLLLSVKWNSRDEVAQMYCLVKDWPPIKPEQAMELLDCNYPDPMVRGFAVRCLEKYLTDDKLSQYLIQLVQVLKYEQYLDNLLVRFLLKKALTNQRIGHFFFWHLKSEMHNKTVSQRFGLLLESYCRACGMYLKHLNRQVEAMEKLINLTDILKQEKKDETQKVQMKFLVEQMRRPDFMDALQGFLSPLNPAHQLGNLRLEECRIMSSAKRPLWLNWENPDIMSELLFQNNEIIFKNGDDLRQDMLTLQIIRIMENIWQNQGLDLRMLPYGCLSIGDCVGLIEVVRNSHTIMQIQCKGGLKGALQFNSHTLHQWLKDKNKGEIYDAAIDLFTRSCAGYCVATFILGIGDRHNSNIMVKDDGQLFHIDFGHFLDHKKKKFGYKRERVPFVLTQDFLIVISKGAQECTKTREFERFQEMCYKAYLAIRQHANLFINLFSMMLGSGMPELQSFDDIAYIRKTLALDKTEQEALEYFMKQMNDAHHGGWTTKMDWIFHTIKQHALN
Sequence of human full length PIK3CA Wild-type (p110α/p85α complex) (P27986 whole entry partner): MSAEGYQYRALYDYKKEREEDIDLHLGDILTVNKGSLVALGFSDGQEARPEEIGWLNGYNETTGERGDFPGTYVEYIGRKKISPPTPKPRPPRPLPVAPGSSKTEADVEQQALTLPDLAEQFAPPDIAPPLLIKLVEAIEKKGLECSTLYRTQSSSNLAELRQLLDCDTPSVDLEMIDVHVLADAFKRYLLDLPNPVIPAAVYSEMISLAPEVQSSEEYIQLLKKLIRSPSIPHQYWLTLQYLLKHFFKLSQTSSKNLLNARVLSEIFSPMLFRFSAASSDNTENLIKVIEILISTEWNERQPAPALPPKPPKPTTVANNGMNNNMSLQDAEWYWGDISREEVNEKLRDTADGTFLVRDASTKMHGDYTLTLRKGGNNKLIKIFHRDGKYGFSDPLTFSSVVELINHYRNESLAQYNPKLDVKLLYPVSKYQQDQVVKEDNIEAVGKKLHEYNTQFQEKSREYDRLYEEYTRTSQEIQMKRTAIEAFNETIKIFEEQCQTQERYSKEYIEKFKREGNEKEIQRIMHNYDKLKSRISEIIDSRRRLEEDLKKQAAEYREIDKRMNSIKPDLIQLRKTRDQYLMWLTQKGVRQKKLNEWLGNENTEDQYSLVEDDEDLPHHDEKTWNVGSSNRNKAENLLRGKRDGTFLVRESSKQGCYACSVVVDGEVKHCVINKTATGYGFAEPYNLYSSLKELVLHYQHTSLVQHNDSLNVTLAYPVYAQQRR

CONC(=O)c1ccccc1NC(C)c1cc(C)cc2c(=O)cc(N3CCC(C)(C)CC3)oc12 (centres unmarked) [Example 19, 2-[1-[2-(4,4-Dimethyl-1-piperidyl)-6-methyl-4-oxo-chromen-8-yl]ethylamino]-N-methoxy-benzamide] and Cc1cc(C(C)Nc2ccccc2-c2nnn[nH]2)c2oc(N3CCC(C)(C)CC3)cc(=O)c2c1 (centres unmarked) [Example 20, 2-(4,4-Dimethyl-1-piperidyl)-6-methyl-8-[1-[2-(1H-tetrazol-5-yl)anilino]ethyl]chromen-4-one] fall in the same range of IC50: 0.5 to 1 µM for the first, 0.5 to 1 µM for the second.

For Cc1cc([C@@H](C)Nc2ccccc2C(=O)O)c2oc(N3CCCCC3)cc(=O)c2c1 [Example 376, 2-[[(1R)-1-[6-Methyl-4-oxo-2-(1-piperidyl)chromen-8-yl]ethyl]amino]benzoic acid], the IC50 was 1 to 5 µM.

Each compound was assayed on T-47D (assay: Cellular Assay T-47D). Details: Homo sapiens, T47D; T-47D cells.
Type: cell-based

First: Cc1cc(C(C)Nc2cc(Cl)ccc2C(=O)O)c2oc(N3CCC(C)(C)CC3)cc(=O)c2c1 (centres unmarked) [Example 10, 4-Chloro-2-[1-[2-(4,4-dimethyl-1-piperidyl)-6-methyl-4-oxo-chromen-8-yl]ethylamino]benzoic acid]
Second: Cc1cc(C(C)Nc2cc(F)ccc2C(=O)O)c2oc(N3CCC(C)(C)CC3)cc(=O)c2c1 (centres unmarked) [Example 36, 2-[1-[2-(4,4-Dimethyl-1-piperidyl)-6-methyl-4-oxo-chromen-8-yl]ethylamino]-4-fluoro-benzoic acid]
The EC50 of the first is higher: 15 to 24 µM for the first, 5 to 15 µM for the second. The second is the more potent here.

Compared with Cc1cc(C(C)Nc2c(Cl)cccc2C(=O)O)c2oc(N3CCC(C)(C)CC3)cc(=O)c2c1 (centres unmarked) [Example 11, 3-Chloro-2-[1-[2-(4,4-dimethyl-1-piperidyl)-6-methyl-4-oxo-chromen-8-yl]ethylamino]benzoic acid], Cc1cc(C(C)Nc2c(C)cccc2C(=O)O)c2oc(N3CCC(C)(C)CC3)cc(=O)c2c1 (centres unmarked) [Example 17, 2-[1-[2-(4,4-Dimethyl-1-piperidyl)-6-methyl-4-oxo-chromen-8-yl]ethylamino]-3-methyl-benzoic acid] is higher in EC50: 15 to 24 µM for the first, > 24 µM for the second.

Compared with Cc1cc(C(C)Nc2cc(C)c(C)cc2C(=O)O)c2oc(N3CCC(C)(C)CC3)cc(=O)c2c1 (centres unmarked) [Example 12, 2-[1-[2-(4,4-Dimethyl-1-piperidyl)-6-methyl-4-oxo-chromen-8-yl]ethylamino]-4,5-dimethyl-benzoic acid], Cc1cc(C(C)Nc2cc(F)c(C)cc2C(=O)O)c2oc(N3CCC(C)(C)CC3)cc(=O)c2c1 (centres unmarked) [Example 18, 2-[1-[2-(4,4-Dimethyl-1-piperidyl)-6-methyl-4-oxo-chromen-8-yl]ethylamino]-4-fluoro-5-methyl-benzoic acid] is lower in EC50: > 24 µM for the first, 15 to 24 µM for the second.

Compared with Cc1cc(C(C)Nc2cc(F)c(F)cc2C(=O)O)c2oc(N3CCC(C)(C)CC3)cc(=O)c2c1 (centres unmarked) [Example 13, 2-[1-[2-(4,4-Dimethyl-1-piperidyl)-6-methyl-4-oxo-chromen-8-yl]ethylamino]-4,5-difluoro-benzoic acid], Cc1cc(C(C)Nc2ccc(F)cc2C(=O)O)c2oc(N3CCC(C)(C)CC3)cc(=O)c2c1 (centres unmarked) [Example 14, 2-[1-[2-(4,4-Dimethyl-1-piperidyl)-6-methyl-4-oxo-chromen-8-yl]ethylamino]-5-fluoro-benzoic acid] is lower in EC50: 15 to 24 µM for the first, 1 to 5 µM for the second.

First: COc1ccc(NC(C)c2cc(C)cc3c(=O)cc(N4CCC(C)(C)CC4)oc23)c(C(=O)O)c1 (centres unmarked) [Example 15, 2-[1-[2-(4,4-Dimethyl-1-piperidyl)-6-methyl-4-oxo-chromen-8-yl]ethylamino]-5-methoxy-benzoic acid]
Second: COc1cc(NC(C)c2cc(C)cc3c(=O)cc(N4CCC(C)(C)CC4)oc23)c(C(=O)O)cc1OC (centres unmarked) [Example 16, 2-[1-[2-(4,4-Dimethyl-1-piperidyl)-6-methyl-4-oxo-chromen-8-yl]ethylamino]-4,5-dimethoxy-benzoic acid]
The EC50 of the first is lower: 5 to 15 µM for the first, > 24 µM for the second. The first is the more potent here.

First: CONC(=O)c1ccccc1NC(C)c1cc(C)cc2c(=O)cc(N3CCC(C)(C)CC3)oc12 (centres unmarked) [Example 19, 2-[1-[2-(4,4-Dimethyl-1-piperidyl)-6-methyl-4-oxo-chromen-8-yl]ethylamino]-N-methoxy-benzamide]
Second: Cc1cc(C(C)Nc2ccccc2S(N)(=O)=O)c2oc(N3CCC(C)(C)CC3)cc(=O)c2c1 (centres unmarked) [Example 21, 2-[1-[2-(4,4-Dimethyl-1-piperidyl)-6-methyl-4-oxo-chromen-8-yl]ethylamino]benzenesulfonamide]
The EC50 of the first is higher: 15 to 24 µM for the first, 5 to 15 µM for the second. The second is the more potent here.

First: Cc1cc(C(C)Nc2ccccc2-c2nnn[nH]2)c2oc(N3CCC(C)(C)CC3)cc(=O)c2c1 (centres unmarked) [Example 20, 2-(4,4-Dimethyl-1-piperidyl)-6-methyl-8-[1-[2-(1H-tetrazol-5-yl)anilino]ethyl]chromen-4-one]
Second: Cc1cc(C(C)Nc2cccc(F)c2C(=O)O)c2oc(N3CCC(C)(C)CC3)cc(=O)c2c1 (centres unmarked) [Example 23, 2-[1-[2-(4,4-Dimethyl-1-piperidyl)-6-methyl-4-oxo-chromen-8-yl]ethylamino]-6-fluoro-benzoic acid]
The EC50 of the first is higher: 15 to 24 µM for the first, 5 to 15 µM for the second.

Cc1cc(C(C)Nc2cccc(Cl)c2C(=O)O)c2oc(N3CCC(C)(C)CC3)cc(=O)c2c1 (centres unmarked) [Example 24, 2-Chloro-6-[1-[2-(4,4-dimethyl-1-piperidyl)-6-methyl-4-oxo-chromen-8-yl]ethylamino]benzoic acid] and Cc1cc(C(C)Nc2cccc3c2C(=O)NC3=O)c2oc(N3CCC(C)(C)CC3)cc(=O)c2c1 (centres unmarked) [Example 32, 4-((1-(2-(4,4-Dimethylpiperidin-1-yl)-6-methyl-4-oxo-4H-chromen-8-yl)ethyl)amino)isoindoline-1,3-dione] cannot be ordered by EC50: > 24 µM for the first, > 24 µM for the second.

Cc1cc(C(C)Nc2ccccc2C(=O)O)c2oc(NCC(C)C)cc(=O)c2c1 (centres unmarked) [Example 77, 2-[1-[2-(Isobutylamino)-6-methyl-4-oxo-chromen-8-yl]ethylamino]benzoic acid] and Cc1cc(C(C)Nc2ccccc2C(=O)O)c2oc(N(C)C)cc(=O)c2c1 (centres unmarked) [Example 78, 2-[1-[2-(Dimethylamino)-6-methyl-4-oxo-chromen-8-yl]ethylamino]benzoic acid] cannot be ordered by EC50: > 24 µM for the first, > 24 µM for the second.

Compared with Cc1cc(C(C)Nc2ccccc2C(=O)O)c2oc(N3CCCC(C)C3)cc(=O)c2c1 (centres unmarked) [Example 79, 2-[1-[6-Methyl-2-(3-methyl-1-piperidyl)-4-oxo-chromen-8-yl]ethylamino]benzoic acid], Cc1cc(C(C)Nc2ccccc2C(=O)O)c2oc(N3CCC3)cc(=O)c2c1 (centres unmarked) [Example 375, 2-[1-[2-(Azetidin-1-yl)-6-methyl-4-oxo-chromen-8-yl]ethylamino]benzoic acid] is higher in EC50: 1 to 5 µM for the first, > 24 µM for the second. The first is the more potent here.

First: Cc1cc(C(C)Nc2ccccc2C(=O)O)c2oc(N3CCC4(CCNCC4)CC3)cc(=O)c2c1 (centres unmarked) [Example 89, 2-[1-[2-(3,9-Diazaspiro[5.5]undecan-3-yl)-6-methyl-4-oxo-chromen-8-yl]ethylamino]benzoic acid]
Second: Cc1cc(C(C)Nc2ccccc2C(=O)O)c2oc(N3CCC4(CCOCC4)CC3)cc(=O)c2c1 (centres unmarked) [Example 94, 2-[1-[6-Methyl-2-(3-oxa-9-azaspiro[5.5]undecan-9-yl)-4-oxo-chromen-8-yl]ethylamino]benzoic acid]
The EC50 of the first is higher: > 24 µM for the first, 5 to 15 µM for the second.

First: Cc1cc(C(C)Nc2ccccc2C(=O)O)c2oc(N3CCN(C(=O)OC(C)(C)C)CC3)cc(=O)c2c1 (centres unmarked) [Example 90, 2-[1-[2-(4-tert-Butoxycarbonylpiperazin-1-yl)-6-methyl-4-oxo-chromen-8-yl]ethylamino]benzoic acid]
Second: Cc1cc(C(C)Nc2ccccc2C(=O)O)c2oc(N3CCN(C)CC3)cc(=O)c2c1 (centres unmarked) [Example 92, 2-[1-[6-Methyl-2-(4-methylpiperazin-1-yl)-4-oxo-chromen-8-yl]ethylamino]benzoic acid]
The EC50 of the first is lower: 15 to 24 µM for the first, > 24 µM for the second. The first is the more potent here.

First: Cc1cc(C(C)Nc2ccccc2C(=O)O)c2oc(N3CCNCC3)cc(=O)c2c1 (centres unmarked) [Example 91, 2-[1-(6-Methyl-4-oxo-2-piperazin-1-yl-chromen-8-yl)ethylamino]benzoic acid]
Second: Cc1cc(C(C)Nc2ccccc2C(=O)O)c2oc(N3CCCC3)cc(=O)c2c1 (centres unmarked) [Example 368, 2-[1-(6-Methyl-4-oxo-2-pyrrolidin-1-yl-chromen-8-yl)ethylamino]benzoic acid]
The EC50 of the first is higher: > 24 µM for the first, 15 to 24 µM for the second.

Compared with Cc1cc(C(C)Nc2ccccc2C(=O)O)c2oc(N3CCCC4(CCNC4=O)C3)cc(=O)c2c1 (centres unmarked) [Example 95, 2-[1-[6-Methyl-4-oxo-2-(1-oxo-2,9-diazaspiro[4.5]decan-9-yl)chromen-8-yl]ethylamino]benzoic acid], Cc1cc([C@@H](C)Nc2ccccc2C(=O)O)c2oc(N3CCCCC3)cc(=O)c2c1 [Example 376, 2-[[(1R)-1-[6-Methyl-4-oxo-2-(1-piperidyl)chromen-8-yl]ethyl]amino]benzoic acid] is lower in EC50: > 24 µM for the first, 1 to 5 µM for the second. The second is the more potent here.

Cc1cc(C(C)Nc2ccccc2C(=O)O)c2oc(N3CCC4(CC3)COC4)cc(=O)c2c1 (centres unmarked) [Example 98, 2-[1-[6-Methyl-2-(2-oxa-7-azaspiro[3.5]nonan-7-yl)-4-oxo-chromen-8-yl]ethylamino]benzoic acid] and Cc1cc(C(C)Nc2ccccc2C(=O)O)c2oc(N3CCC4(CCN(C)C4=O)CC3)cc(=O)c2c1 (centres unmarked) [Example 381, 2-[1-[6-Methyl-2-(2-methyl-1-oxo-2,8-diazaspiro[4.5]decan-8-yl)-4-oxo-chromen-8-yl]ethylamino]benzoic acid] cannot be ordered by EC50: > 24 µM for the first, > 24 µM for the second.

First: Cc1cc(CNc2ccccc2C(=O)O)c2oc(N3CCC(C)(C)CC3)cc(=O)c2c1 [Example 369, 2-[[2-(4,4-Dimethyl-1-piperidyl)-6-methyl-4-oxo-chromen-8-yl]methylamino]benzoic acid]
Second: Cc1cc(C(C)Nc2ccccc2C(=O)O)c2oc(N3CCC(C)CC3)cc(=O)c2c1 (centres unmarked) [Example 370, 2-[1-[6-Methyl-2-(4-methyl-1-piperidyl)-4-oxo-chromen-8-yl]ethylamino]benzoic acid]
The EC50 of the first is higher: > 24 µM for the first, 1 to 5 µM for the second.

COCCOCCOC(=O)c1ccccc1N[C@H](C)c1cc(C)cc2c(=O)cc(N3CCCCC3)oc12 [Example 377, 2-(2-Methoxyethoxy)ethyl 2-[[(1R)-1-[6-methyl-4-oxo-2-(1-piperidyl)chromen-8-yl]ethyl]amino]benzoate] and COC(=O)c1ccccc1N[C@H](C)c1cc(C)cc2c(=O)cc(N3CCCCC3)oc12 [Example 379, Methyl 2-[[(1R)-1-[6-methyl-4-oxo-2-(1-piperidyl)chromen-8-yl]ethyl]amino]benzoate] cannot be ordered by EC50: > 24 µM for the first, > 24 µM for the second.

Compound Cc1cc([C@@H](C)Nc2ccccc2C(=O)O)c2oc(N3CCC(Cl)CC3)cc(=O)c2c1 [Example 383, 2-[[(1R)-1-[2-(4-Chloro-1-piperidyl)-6-methyl-4-oxo-chromen-8-yl]ethyl]amino]benzoic acid] has an EC50 of 1 to 5 µM.
